This is an account of results in publication PMC2974784 (Pharmacological research : the official journal of the …, 2010).

Structures can show the parent of a compound that is named as a salt. Where two headings read alike, the source gives them in different places.

The EC50 is the concentration that produces a half-maximal response.

Common to all, as to type: cell-based
Assay [1] addresses T1, P2Y1 receptor (Rattus norvegicus, UniProt P49651).
A further assay deals with T2, P2Y13 receptor (Rattus norvegicus, UniProt Q6GUG4).
T2 sequence (Q6GUG4 1-336): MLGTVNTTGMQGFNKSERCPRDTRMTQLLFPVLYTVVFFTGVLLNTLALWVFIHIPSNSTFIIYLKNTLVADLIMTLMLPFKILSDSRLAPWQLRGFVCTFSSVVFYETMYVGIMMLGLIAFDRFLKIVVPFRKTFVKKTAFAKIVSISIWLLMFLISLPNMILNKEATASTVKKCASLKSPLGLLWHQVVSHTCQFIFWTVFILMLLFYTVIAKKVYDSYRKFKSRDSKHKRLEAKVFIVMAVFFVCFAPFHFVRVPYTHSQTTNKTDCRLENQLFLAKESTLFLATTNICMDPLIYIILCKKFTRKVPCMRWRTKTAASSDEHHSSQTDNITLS

In assay [2] the target is T1, P2Y1 receptor. This is another data set of the same source.
For assay [3], the target named is T1, P2Y1 receptor. Nature of the assay: agonist-induced intracellular calcium mobilization in RBL-2H3 cells. For orientation: A change in cytosolic calcium serves as a functional read-out for many receptors and channels.

T1 sequence (P49651 whole entry): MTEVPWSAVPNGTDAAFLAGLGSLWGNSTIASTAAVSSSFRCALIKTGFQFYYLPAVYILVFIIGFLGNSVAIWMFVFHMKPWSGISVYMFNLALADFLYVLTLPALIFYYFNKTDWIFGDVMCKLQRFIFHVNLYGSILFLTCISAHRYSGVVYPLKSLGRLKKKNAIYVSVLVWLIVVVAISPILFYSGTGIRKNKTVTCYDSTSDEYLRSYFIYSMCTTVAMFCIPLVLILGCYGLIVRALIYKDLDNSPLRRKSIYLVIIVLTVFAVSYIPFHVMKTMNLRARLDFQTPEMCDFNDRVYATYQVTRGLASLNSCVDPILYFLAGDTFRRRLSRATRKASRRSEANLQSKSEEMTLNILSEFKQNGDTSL

Take `Nc1ncnc2c1ncn2[C@@H]1O[C@H](COP(=O)(O)OP(=O)(O)O)[C@@H](O)[C@H]1O` [ADP]: the EC50 came to 278 ± 42 nM at P2Y1 receptor [1] and 4700 ± 800 nM on P2Y13 receptor. Regarding `CSc1nc(N)c2ncn([C@H]3[C@H](O)[C@H](O)[C@]4(COP(=O)(O)OP(=O)(O)O)C[C@H]34)c2n1` [MRS2365, [[(1R,2R,3S,4R,5S)-4-[6-amino-2-(methylthio)-9H-purin-9-yl]-2,3-dihydroxybicyclo[3.1.0]hex-1-yl]methyl]diphosphoric acid mono ester trisodium salt], the EC50 on P2Y1 receptor [2] was found to be 4.5 ± 0.8 nM.

Regarding `CSc1nc(N)c2ncn([C@@H]3O[C@H](COP(=O)(O)OP(=O)(O)O)[C@@H](O)[C@H]3O)c2n1` [2-MeSADP], the EC50 at P2Y1 receptor [3] is 37.8 ± 11.3 nM.
